# Laboratory results from US20240423977A1, “FIVE-MEMBERED RING-FUSED SIX-MEMBERED RING COMPOUND, PREPARATION METHOD THEREFOR, AND PHARMACEUTICAL COMPOSITION AND USE THEREOF” (HANGZHOU POLYMED BIOPHARMACEUTICALS, INC., priority 2022, published 2024).
# What was measured:
# [1] = molecular target: IRAK4 protein in THP-1 cells (Homo sapiens (Human), UniProt Q9NWZ3); test: PROTAC-induced IRAK4 protein degradation in THP-1 cells (Western Blot); format: cell-based; conditions: for DC50: concentration that degraded 50% of IRAK4, Western blotting, 24 hours after administration; for IRAK4 degradation rate 24 hours after administration of the compounds with a concentration of 1 μM: Western blotting
# Sequence of IRAK4 protein in THP-1 cells (Q9NWZ3 whole entry): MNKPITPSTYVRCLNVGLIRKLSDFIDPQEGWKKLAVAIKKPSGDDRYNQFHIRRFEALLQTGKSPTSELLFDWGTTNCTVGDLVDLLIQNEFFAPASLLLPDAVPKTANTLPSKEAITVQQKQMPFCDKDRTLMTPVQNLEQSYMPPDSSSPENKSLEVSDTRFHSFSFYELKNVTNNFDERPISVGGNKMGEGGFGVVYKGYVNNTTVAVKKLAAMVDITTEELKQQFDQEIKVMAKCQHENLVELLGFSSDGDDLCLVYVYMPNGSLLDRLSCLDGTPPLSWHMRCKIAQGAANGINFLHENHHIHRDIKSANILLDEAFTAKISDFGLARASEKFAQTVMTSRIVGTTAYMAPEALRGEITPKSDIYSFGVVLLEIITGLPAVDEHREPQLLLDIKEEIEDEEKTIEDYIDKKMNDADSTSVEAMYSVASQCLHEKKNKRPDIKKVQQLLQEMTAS
# Protocol: 2.1 Based on the experimental method of Western Blot, specific antibodies were used to stain the THP-1 cell samples treated by gel electrophoresis, and the degrading activity of the compounds on the IRAK4 protein in THP-1 cells was determined by analyzing the position and depth of staining. The concentrations of compound for the detection included 0 μM, 0.3 μM, 1 μM and 3 μM, and the cells were treated by the compound for 8 hours, 16 hours, 24 hours, and 48 hours. Glyceraldehyde-3-phosphate dehydrogenase (GAPDH) is an internal reference protein in this experiment.
# Electrophoresis buffer: 50 mL MOPS SDS Running Buffer (20×) and 50 mL 20×TBS Tween-20 buffer were diluted with deionized water to 1 L as the electrophoresis buffer;
# 5% skim milk (w/v): 2.5 g skim milk was diluted with 50 mL 1×TBS Tween-20 buffer to prepare 5% skim milk;
# 5% BSA (w/v): 2.5 g BSA was diluted with 50 mL 1×TBS Tween-20 buffer to prepare 5% BSA;
# Anti-IRAK4 antibody was diluted with 5% BSA at 1:1000 into a primary antibody working solution;
# Goat Anti-Rabbit IgG H&L (HRP) was diluted with 5% BSA at 1:2000 into a second antibody working solution; and
# Goat Anti-Mouse IgG H&L (HRP) was diluted with 5% BSA at 1:2000 into a second antibody working solution.
# THP-1 cells were plated in a 6-well plate at a density of 1.5×10^6 cells per ml and incubated for 2 hours in a cell culture incubator under 37° C. and 5% CO2. The compound was diluted with DMSO to 0.6 mM, 0.2 mM and 0.06 mM respectively. 10 μL of compound solution was added to the corresponding wells, and continued to incubate in the incubator for 16 hours, 24 hours and 48 hours respectively. The compound-treated THP-1 cells in the well were collected, added with 120 μL of RIPA lysate containing protease inhibitor, Phosphatase Inhibitor Cocktail 2 and Phosphatase Inhibitor Cocktail 3, lysed on wet ice for 30 minutes, and then the cells lysate was centrifuged at a high speed and a low temperature for 5 minutes to collect the supernatant. The protein concentration of the cell sample was determined according to the instructions in the Pierce™ BCA Protein Assay Kit.
# The concentration of the sample was adjusted to be consistent using lysis buffer and NuPAGE® LDS sample buffer containing 1M DTT. The samples were heated at 95° C. for 5 minutes and centrifuged at a low temperature and at a high speed. 20 μL of the prepared protein sample and 4 μL of PageRuler Prestained Protein Ladder were added into the gel well for running at 80V voltage for 0.5 hours, then the voltage was adjusted to 120V for further running for 1.5 hours. The gel was removed and the proteins in the gel were transferred to the IBlotTM 2 transfer membrane set at 20V. After successful transfer, bands at 65 kDa-40 kDa and 40 kDa-30 kDa were cut respectively. The membranes were blocked with 5% skim milk for 1 hour at room temperature. The membranes were washed three times with 1× concentration of TBST, then incubated with IRAK4 antibody working solution overnight at 4° C. The IRAK4 antibody working solution was discarded, and the membranes were washed three times with 1×concentration of TBST, and incubated with Goat Anti-Rabbit IgG H&L (HRP) working solution and Goat Anti-Mouse IgG H&L (HRP) working solution at room temperature. After 1 hour of incubation, the antibody working solution was discarded and the membranes were washed three times with 1× concentration of TBST. According to the instructions of the kit SuperSignal™ West Femto Maximum Sensitivity Substrate, the reagents in the kit were mixed in equal volume proportions to prepare a luminescent liquid mixture. The membranes were incubated for 1 minute, then removed for exposure.
# The results of Western blotting 24 hours after administration of the compounds with a concentration of 1 μM were shown in Table 3: […]
# kinase IRAK4 = kinase IRAK4 (Homo sapiens (Human), UniProt Q9NWZ3); test: Inhibitory effects of compounds on kinase activity (fluorescence microfluidic mobility detection, competitive with ATP); format: biochemical; conditions: IRAK4 6 nM, ATP 10 μM
# Sequence of kinase IRAK4 (Q9NWZ3 whole entry): as above
# Protocol: Based on an experimental method of fluorescence microfluidic mobility detection, an IC50 value of competitive binding of kinase IRAK4 to ATP by the compounds was determined. The initial detection concentration of the compounds was 10 μM, diluted 4-fold gradient down to […], and tested in duplicate. Among them, commercial staurosporine was the standard control substance in this experiment.
# 1) IRAK4 kinase was dissolved in kinase buffer (50 mM HEPES pH 7.5, 10 mM MgCl2, 2 mM DTT and 0.01% Brij-35) to a final concentration of 6 nM.
# 2) The substrate peptide FAM-P8 and ATP were dissolved in the above kinase buffer. The final concentrations of the IRAK4 substrate peptide FAM-P8 and ATP were 3 μM and 10 μM respectively.
# 3) Dilution of the compounds: the compound was first diluted to 50 μM, and then diluted down with a 4-fold gradient of DMSO. The solution without the compound and kinase is used as a blank control, corresponding to the “minimum value” shown below; and the solution without the compound but with kinase, adenosine 5′-triphosphate disodium salt hydrate, DMSO and buffer is used as a positive control, corresponding to the “maximum value” shown below. 4) Kinase reaction and termination: 10 μL of kinase buffer was added to a 384-well plate containing 5 μL of the compound to be tested, and incubated at room temperature for 10 minutes. Another 10 μL of buffer containing the substrate peptide and adenosine 5′-triphosphate disodium salt hydrate was added to the 384-well plate. After incubation at 28° C. for one hour, 25 μL stop solution (100 mM HEPES pH 7.5, 50 mM EDTA, 0.2% Coating Reagent #3 and 0.015% Brij-35) was added to each well to terminate the reaction.
# 5) Data reading: the CaliperEZ Reader II instrument was used to read the conversion rate data. Conditions: downstream voltage −500V, upstream voltage −2250V, base pressure −0.5 PSI, and screening pressure −1.2 PSI.
# 6) Data calculation: the conversion rate data was copied from CaliperEZ Reader II and converted into inhibition rate data. The calculation formula is as follows:
# [formula] • IC50 values were fitted using XLFit excel add-in version 5.4.0.8,
# Y=Bottom+(Top−Bottom)/(1+(IC50/X)^HillSlope) Fitting formula: […]
Structure (SMILES),DC50 [1] [nM],"IC50 (kinase IRAK4; Table 2, substrate FAM-P8 3 μM) [nM]",IRAK4 degradation rate 24 hours after administration of the compounds with a concentration of 1 μM [1],"IC50 (kinase IRAK4; Table 1, class symbols) [nM]"
COc1cc2nn(C3CC4(CCN(C(=O)C5CCN(c6cc7c(cc6F)C(=O)N([C@H]6CCC(=O)NC6=O)C7=O)CC5)CC4)C3)cc2cc1NC(=O)c1cccc(C(F)(F)F)n1 [Compound I-61],7.62,31.4,,
COc1cc2nn(C3CC4(CCN(C(=O)C5CCN(c6cc7c(cc6F)C(=O)N([C@@H]6CCC(=O)NC6=O)C7=O)CC5)CC4)C3)cc2cc1NC(=O)c1cccc(C(F)(F)F)n1 [Compound I-62],3.26,19,,
CC(C)(O)c1cc2nn(C3CC4(CCN(C(=O)C5CCN(c6ccc7c(c6)C(=O)N([C@H]6CCC(=O)NC6=O)C7=O)CC5)CC4)C3)cc2cc1NC(=O)c1cccc(C(F)(F)F)n1 [Compound I-63],2.41,32.1,,
Cc1cccc(C(=O)Nc2cc3cn(C4CC5(CCN(C(=O)C6CCN(c7ccc8c(c7)C(=O)N([C@@H]7CCC(=O)NC7=O)C8=O)CC6)CC5)C4)nc3cc2C(C)(C)O)n1 [Compound I-64],2.32,22.7,,
COc1cc2nn(C3CC4(CCN(C(=O)C5CCN(c6ccc7c(c6)C(=O)N([C@H]6CCC(=O)NC6=O)C7=O)CC5)CC4)C3)cc2cc1NC(=O)c1cccc(C(F)(F)F)n1 [Compound I-65],3.71,26.3,,
COc1cc2nn(C3CC4(CCN(C(=O)C5CCN(c6ccc7c(c6)C(=O)N([C@@H]6CCC(=O)NC6=O)C7=O)CC5)CC4)C3)cc2cc1NC(=O)c1cccc(C(F)(F)F)n1 [Compound I-66],3.14,25.3,,
O=C1CCC(N2C(=O)c3ccc(N4CCN(C(=O)CN5CCC(n6cc7cc(NC(=O)c8cccc(C(F)(F)F)n8)c(OC(F)(F)F)cc7n6)CC5)CC4)cc3C2=O)C(=O)N1 (centres unmarked) [II-2],32.8,34,,
COc1cc2nn(C3CCN(C(=O)CN4CCN(c5ccc6c(c5)C(=O)N(C5CCC(=O)NC5=O)C6=O)CC4)CC3)cc2cc1NC(=O)c1cccc(C(F)(F)F)n1 (centres unmarked) [II-4],12.4,20,50~75%,< 100
COc1cc2nn(C3CCN(CC(=O)N4CCN(c5cc6c(cc5F)C(=O)N(C5CCC(=O)NC5=O)C6=O)CC4)CC3)cc2cc1NC(=O)c1cccc(C(F)(F)F)n1 (centres unmarked) [II-5],6.15,11,75~100%,< 100
CC(C)(O)c1cc2nn(C3CCN(CC(=O)N4CCN(c5ccc6c(c5)C(=O)N(C5CCC(=O)NC5=O)C6=O)CC4)CC3)cc2cc1NC(=O)c1cccc(C(F)(F)F)n1 (centres unmarked) [II-6],9.99,8.2,75~100%,< 100
COc1cc2nn(C3CCN(CC(=O)N4CCN(c5ccc6c(c5)CN(C5CCC(=O)NC5=O)C6=O)CC4)CC3)cc2cc1NC(=O)c1cccc(C(F)(F)F)n1 (centres unmarked) [II-7],2.2,3.57,,
COc1cc2nn(C3CCN(C(C)C(=O)N4CCN(c5ccc6c(c5)C(=O)N(C5CCC(=O)NC5=O)C6=O)CC4)CC3)cc2cc1NC(=O)c1cccc(C(F)(F)F)n1 (centres unmarked) [II-10],5.98,7.45,,< 100
COc1cc2nn(C3CCN(C4CC5(CCN(c6ccc7c(c6)C(=O)N(C6CCC(=O)NC6=O)C7=O)CC5)C4)CC3)cc2cc1NC(=O)c1cccc(C(F)(F)F)n1 (centres unmarked) [II-12],20.5,14.2,,< 100
COc1cc2nn(C3CC4CCC(C3)N4CC(=O)N3CCN(c4ccc5c(c4)C(=O)N(C4CCC(=O)NC4=O)C5=O)CC3)cc2cc1NC(=O)c1cccc(C(F)(F)F)n1 (centres unmarked) [II-13],478,10.5,,< 100
COc1cc2nn(C3CCN(C(=O)C4CCN(Cc5ccc6c(c5)C(=O)N(C5CCC(=O)NC5=O)C6=O)CC4)CC3)cc2cc1NC(=O)c1cccc(C(F)(F)F)n1 (centres unmarked) [II-16],32.9,14,<25%,< 100
COc1cc2nn(C3CCN(C4CCN(C(=O)c5ccc6c(c5)C(=O)N(C5CCC(=O)NC5=O)C6=O)CC4)CC3)cc2cc1NC(=O)c1cccc(C(F)(F)F)n1 (centres unmarked) [II-17],> 1000,11,<25%,< 100
COc1cc2nn(C3CCN(CC(=O)N4CCN(c5cccc6c5C(=O)N(C5CCC(=O)NC5=O)C6=O)CC4)CC3)cc2cc1NC(=O)c1cccc(C(F)(F)F)n1 (centres unmarked) [II-20],14.1,5.5,,
